Data: PubChem BioAssay (NCI)
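In this assay, cells in 96-well plates receive the compound at five concentrations for 48 hours. Endpoints are linearly interpolated between the surrounding concentrations. TGI denotes the concentration required for complete inhibition of growth.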

Key:
Test in all cases: growth of human tumour cells (NCI), 48 h
HS 578T breast = test system: HS 578T breast
OVCAR-5 ovarian = test system: OVCAR-5 ovarian
COLO 205 colon = test system: COLO 205 colon
MDA-MB-231 breast = test system: MDA-MB-231 breast
SK-MEL-5 melanoma = test system: SK-MEL-5 melanoma
HOP-92 NSCLC = test system: HOP-92 NSCLC
MDA-MB-435 = test system: MDA-MB-435
CCRF-CEM leukemia = test system: CCRF-CEM leukemia
SF-539 CNS = test system: SF-539 CNS
MOLT-4 leukemia = test system: MOLT-4 leukemia
HOP-62 NSCLC = test system: HOP-62 NSCLC
K-562 leukemia = test system: K-562 leukemia
SF-268 CNS = test system: SF-268 CNS
SK-MEL-28 melanoma = test system: SK-MEL-28 melanoma
NCI-H460 lung = test system: NCI-H460 lung

Structure (SMILES)	TGI (HS 578T breast)	TGI (OVCAR-5 ovarian)	TGI (COLO 205 colon)	TGI (MDA-MB-231 breast)	TGI (SK-MEL-5 melanoma)	TGI (HOP-92 NSCLC)	TGI (MDA-MB-435)	TGI (CCRF-CEM leukemia)	TGI (SF-539 CNS)	TGI (MOLT-4 leukemia)	TGI (HOP-62 NSCLC)	TGI (K-562 leukemia)	TGI (SF-268 CNS)	TGI (SK-MEL-28 melanoma)	TGI (NCI-H460 lung)
Cc1ccc2[nH]c3c(c(=O)n(C)c(=O)n3C)c2c1	> 100 µM	> 100 µM	> 100 µM	> 100 µM	> 100 µM	> 100 µM	> 100 µM	> 100 µM	> 100 µM	> 100 µM	> 100 µM	> 100 µM	> 100 µM	–	–
CCO/C(O)=C(/C(=N)N1CCOCC1)C(=O)NC(C)C	> 100 µM	> 100 µM	> 100 µM	> 100 µM	–	> 100 µM	> 100 µM	> 100 µM	> 100 µM	> 100 µM	> 100 µM	> 100 µM	> 100 µM	> 100 µM	> 100 µM
c1ccc2sc(SSSc3nc4ccccc4s3)nc2c1	> 100 µM	> 100 µM	> 100 µM	> 100 µM	> 100 µM	> 100 µM	> 100 µM	> 100 µM	–	> 100 µM	> 100 µM	> 100 µM	> 100 µM	> 100 µM	> 100 µM
O=c1[nH]c(=O)c2c([nH]1)[nH]c1ccc(Br)cc12	> 100 µM	> 100 µM	> 100 µM	> 100 µM	> 100 µM	> 100 µM	> 100 µM	> 100 µM	> 100 µM	–	> 100 µM	–	> 100 µM	–	–
CC1(C)Cc2c(sc3[nH]c(=S)[nH]c(=S)c23)CS1	> 100 µM	–	> 100 µM	> 100 µM	> 100 µM	50.4 µM	> 100 µM	> 100 µM	> 100 µM	> 100 µM	> 100 µM	> 100 µM	> 100 µM	> 100 µM	> 100 µM
[N-]=[N+]=NC1C(O)C(CO)OC1n1ccc(N)nc1=O (centres undefined)	> 625 µM	> 625 µM	> 568 µM	> 564 µM	> 625 µM	> 625 µM	> 625 µM	–	455 µM	> 174 µM	> 625 µM	> 625 µM	> 625 µM	> 625 µM	> 625 µM
CC(Br)CN1CCOCC1 (centres undefined)	> 100 µM	> 100 µM	> 100 µM	> 100 µM	> 100 µM	> 100 µM	> 100 µM	–	> 100 µM	–	> 100 µM	> 100 µM	> 100 µM	> 100 µM	> 100 µM
CN1CCN(c2cc3nc(-c4ccc(Cl)cc4)[nH]c3cc2F)CC1	42.6 µM	48.9 µM	51.1 µM	60.8 µM	35.5 µM	> 70.4 µM	32.1 µM	82.8 µM	–	41.1 µM	30.6 µM	28.7 µM	51.3 µM	30.8 µM	> 53.9 µM
N#Cc1c(Cl)cc(C#N)n2c1nc1ccccc12	83.7 µM	30.3 µM	15.3 µM	24 µM	29.3 µM	16.8 µM	26.2 µM	–	19.1 µM	5.4 µM	44.1 µM	21.1 µM	13.6 µM	26.5 µM	35.4 µM
Cc1ccc(Sc2ccccc2C23OC(C)(C4C(=O)N(c5ccccc5)C(=O)C42)N(C)C3=O)cc1 (centres undefined)	> 100 µM	> 100 µM	> 100 µM	> 100 µM	> 100 µM	> 100 µM	> 100 µM	> 100 µM	> 100 µM	> 100 µM	–	> 100 µM	> 100 µM	> 100 µM	> 100 µM
CC1=NN(c2ccc(S(=O)(=O)O)cc2)C2(C1)C(Cl)C(=O)N2c1nc2ccccc2s1 (centres undefined)	> 100 µM	> 100 µM	> 100 µM	> 100 µM	> 100 µM	> 100 µM	> 100 µM	> 100 µM	–	> 100 µM	> 100 µM	> 100 µM	> 100 µM	> 100 µM	> 100 µM
O=Cc1ccc2ccocc1-2	> 100 µM	> 100 µM	> 100 µM	> 100 µM	> 100 µM	> 100 µM	> 100 µM	> 100 µM	> 100 µM	> 100 µM	> 100 µM	> 100 µM	> 100 µM	–	> 100 µM
CCCCC(=O)/C=c1/cc(C)[nH]c2cccc3cnn1c32	> 100 µM	> 100 µM	> 100 µM	> 100 µM	> 100 µM	> 100 µM	> 100 µM	> 100 µM	> 100 µM	> 100 µM	> 100 µM	–	> 100 µM	> 100 µM	–
COc1ccc(Cc2cc(Cc3ccc(OC)cc3)cc(Cc3ccc(OC)cc3)c2)cc1	> 100 µM	> 100 µM	–	> 100 µM	–	> 100 µM	> 100 µM	–	> 100 µM	> 100 µM	> 100 µM	> 100 µM	> 100 µM	> 100 µM	> 100 µM
O=C1CSC(c2ccccc2O)N1c1ccc2c(c1)Oc1c(Cl)c3c(c(Cl)c1=N2)Oc1cc(N2C(=O)CSC2c2ccccc2O)ccc1N=3 (centres undefined)	> 100 µM	> 100 µM	–	> 100 µM	> 100 µM	39.9 µM	> 100 µM	> 100 µM	> 100 µM	46.4 µM	> 100 µM	> 100 µM	> 100 µM	> 100 µM	> 100 µM
O=C1Nc2ccc(Br)cc2/C1=N/S(=O)(=O)O	> 100 µM	79.3 µM	> 100 µM	36 µM	29.6 µM	> 100 µM	22.7 µM	35.6 µM	–	63.4 µM	> 100 µM	42.6 µM	> 100 µM	> 100 µM	> 100 µM
C=C1N(S(=O)(=O)c2ccc(C)cc2)C(=O)OCC12CCCC2	> 100 µM	> 100 µM	> 100 µM	> 100 µM	94.6 µM	> 100 µM	> 100 µM	> 100 µM	> 100 µM	> 100 µM	–	> 100 µM	–	> 100 µM	> 100 µM
